Consider 18 compounds from patent US10844049B2, “GLP-1R agonists and uses thereof” (QILU REGOR THERAPEUTICS INC., priority 2018, dated 2020).

For this assay, the target named is GLP1R (Homo sapiens, UniProt P43220). The experiment in a line: GLP1R cAMP HTRF assay, HEK293/GLP-1R/CRE/Luc (HEK293T cells). It is filed as cell-based. The following applies: read-out: EC50. How it is done: GLP-1R-mediated agonist activity was determined with a cell-based functional assay utilizing an HTRF (Homogeneous Time-Resolved Fluorescence) cAMP detection kit (cAMP Dynamic 2 Assay Kit; CisBio cat #62AM4PEC) that measures cAMP levels in the cell. The method is a competitive immunoassay between native cAMP produced by the cells and exogenous cAMP labeled with the dye d2. The tracer binding is visualized by a mAb anti-cAMP labeled with Cryptate. The specific signal (i.e., energy transfer) is inversely proportional to the concentration of cAMP in either standard or experimental sample.
Sequence of GLP1R (P43220 24-463): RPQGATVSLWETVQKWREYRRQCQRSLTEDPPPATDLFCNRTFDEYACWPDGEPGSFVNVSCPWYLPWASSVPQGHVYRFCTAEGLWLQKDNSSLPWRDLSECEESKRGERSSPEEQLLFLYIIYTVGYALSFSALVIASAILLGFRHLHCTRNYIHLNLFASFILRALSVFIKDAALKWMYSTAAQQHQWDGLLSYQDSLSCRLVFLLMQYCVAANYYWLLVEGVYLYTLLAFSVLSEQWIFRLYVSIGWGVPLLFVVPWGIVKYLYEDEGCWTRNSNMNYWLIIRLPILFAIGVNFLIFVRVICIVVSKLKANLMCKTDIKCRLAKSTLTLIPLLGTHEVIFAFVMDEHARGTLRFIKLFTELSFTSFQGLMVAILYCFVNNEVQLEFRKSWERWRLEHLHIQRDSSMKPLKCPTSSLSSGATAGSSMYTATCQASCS
A cell line stably expressing the receptor was isolated.
Varying concentrations of each compound to be tested (in DMSO) were diluted in DMSO to obtain 200× compound working solution first and then 50 nl compounds were added to a white 384-well assay plate (Greiner 784075) with ECHO. The final DMSO concentration was 0.5%. The compound concentration range may be adjusted at any time.
Cells were removed from cryopreservation, re-suspended in 5 mL of Dulbecco's Phosphate Buffered Saline (DPBS-Sigma Cat # D8537) and centrifuged at 900 g for 5 min at 22° C. The cell pellet was then re-suspended in 1 mL of assay buffer [DPBS with 500 μM IBMX (Sigma #15879) and 0.1% BSA (Sigma # A1933). IBMX and BSA were freshly added on the day of assay]. A 10 μL sample of the cell suspension was counted on an Invitrogen Countess II to determine cell viability and cell count per mL. The remaining cell suspension was then adjusted with assay buffer to deliver 1000 viable cells per well using a Matrix Combi Multidrop reagent dispenser. 10 μL cell suspensions were added to each well of the assay plate which already contains compound. The plate was sealed and incubated at 37° C. with 5% CO2 for 30 minutes.
Following the 30 minute incubation, 5 μL of labeled d2 cAMP and 5 μL of anti-cAMP antibody (both diluted 1:20 in cell lysis buffer; as described in the manufacturer's assay protocol) were added to each well of the assay plate. The plates w ere then incubated at room temperature and after 60 minutes, changes in the HTRF signal were read with an Envision multi-label plate reader using excitation of 330 nm and emissions of 615 and 665 nm. Raw data were converted to nM cAMP by interpolation from a cAMP standard curve (as described in the manufacturer's assay protocol) and the percent effect was determined relative to a saturating concentration of the full agonist GLP-17-37 (10 nM) included on each plate. EC50 determinations were made from agonist dose-response curves analyzed with a curve fitting program using a 4-parameter logistic dose response equation.
3) Anti-cAMP antibody-cryptate working solution preparation • c) The lyophilisate was reconstituted with appropriate amount of distilled water according to manufacturer's instruction to make working stock which can be aliquoted and frozen (−20° C.). • d) The working stock solution was diluted 1:20 in the conjugate and lysis buffer before use. Procedures Procedures for Cell Suspension Preparation • 1. Frozen cells were thawed very briefly in a 37° C. water bath under sterile conditions until just before ice completely melt (for about 1 minute) with a continuous agitation. Caution was taken because a longer incubation could result in cell death. • 2. DMSO was removed from the media by carefully transferring thawed cells to a sterile 15/50 mL tube, filling a tube with 10-50 mL of complete media pre-warmed to 37° C., and allowing the cells to sit 5 min before centrifuging at 900 rpm for 5 minutes for cell collection. • 3. The cells were resuspended with assay buffer. • 4. For stable GLP1-R assay, the optimized cell density is 1000 cells/well. Caution was taken because cell density optimization was crucial and needed to be optimized in different laboratories. The level of cAMP produced by the cells must fall within the linear range of the standard curve.

The EC50 is the midpoint of the concentration-response curve.

Turning to `N#Cc1ccc(COc2cccc(N3CCC(Cc4nc5ccc(C(=O)O)c(F)c5n4C[C@@H]4CCO4)CC3)n2)nc1` [Compound 233, (S)-2-((l-(6-((5-cyanopyridin-2-yl)methoxy)pyridin-2-yl)piperidin-4-yl)methyl)-7-fluoro-1-(oxetan-2-ylmethyl)-1H-benzo[d]imidazole-6-carboxylic add], the EC50 is no more than 150 nM.

With `O=C(O)c1ccc2nc(CN3CC=C(c4cc(F)c(F)c(OCc5ccc(C#CC6CC6)cc5F)c4)CC3)n(C[C@@H]3CCO3)c2c1` [Compound 203, (S)-2-((4-(3-(4-(cyclopropylethynyl)-2-fluorobenzyloxy)-4,5-difluorophenyl)-5,6-dihydropyridin-1(2H)-yl)methyl)-1-(oxetan-2-ylmethyl)-1H-benzo[d]imidazole-6-carboxylic acid], the EC50 was no more than 150 nM. As for `O=C(O)c1ccc2nc(CN3CC=C(c4cccc(OCc5ccc(C#CC6CC6)cc5F)c4)CC3)n(C[C@@H]3CCO3)c2c1` [Compound 199, (S)-2-((4-(3-((4-(cyclopropylethynyl)-2-fluorobenzyl)oxy)phenyl)-3,6-dihydropyridin-1(2H)-yl)methyl)-1-(oxetan-2-ylmethyl)-1H-benzo[d]imidazole-6-carboxylicacid], the figure is no more than 150 nM; as for `O=C(O)c1ccc2nc(CN3CC=C(c4cccc(OCc5ccc(Cl)cc5Cl)n4)CC3)n(C[C@@H]3CCO3)c2c1` [Compound 114, (S)-2-((6-((2,4-dichlorobenzyl)oxy)-3′,6′-dihydro-[2,4′-bipyridin]-1′(2′H)-yl)methyl)-1-(oxetan-2-ylmethyl)-1H-benzo[d]imidazole-6-carboxylic add], no more than 15 nM; as for `O=C(O)c1ccc2nc(CN3CCN(c4cc(F)c(F)c(OCc5ccc(Cl)cc5F)c4)CC3)n(C[C@@H]3CCO3)c2c1` [Compound 187, (S)-2-((4-(3-(4-chloro-2-fluorobenzyloxy)-4,5-difluorophenyl)piperazin-1-yl)methyl)-1-(oxetan-2-ylmethyl)-1H-benzo[d]imidazole-6-carboxylic acid], no more than 15 nM. For `O=C(O)c1ccc2nc(CN3CC=C(c4cccc(NC5CCCc6cc(Cl)ccc65)n4)CC3)n(C[C@@H]3CCO3)c2c1` (stereo partly drawn) [Compound 104, 2-((6-((6-chloro-1,2,3,4-tetrahydronaphthalen-1-yl)amino)-36′-dihydro-[2,4′-bipyridin]-1′(2′H)-yl)methyl)-1-(((S)-oxetan-2-yl)methyl)-1H-benzo[d]imidazole-6-carboxylic add], the EC50 was no more than 1000 nM. As for `N#Cc1ccc(COc2cc(N3CCN(Cc4nc5ccc(C(=O)O)cc5n4C[C@@H]4CCO4)CC3)ccc2F)c(F)c1` [Compound 195, (S)-2-((4-(3-((4-cyano-2-fluorobenzyl)oxy)-4-fluorophenyl)piperazin-1-yl)methyl)-1-(oxetan-2-ylmethyl)-1H-benzo[d]imidazole-6-carboxylic add], the figure is no more than 15 nM. As for `O=C(O)c1ccc2nc(CN3CC=C(c4ccc(F)c(OCc5ccc(C#CC6CC6)cc5F)c4)CC3)n(C[C@@H]3CCO3)c2c1` [Compound 202, (S)-2-((4-(3-((4-(cyclopropylethynyl)-2-fluorobenzyl)oxy)-4-fluorophenyl)-3,6-dihydropyridin-1(2H)-yl)methyl)-1-(oxetan-2-ylmethyl)-1H-benzo[d]imidazole-6-carboxylic acid], the figure is no more than 150 nM. As for `N#Cc1ccc(CNc2nc(C3=CCN(Cc4nc5ccc(C(=O)O)cc5n4C[C@@H]4CCO4)CC3)c(F)cc2F)c(F)c1` [Compound 217, (S)-2-((6-((4-cyano-2-fluorobenzyl)amino)-3,5-difluoro-3′,6′-dihydro-[2,4′-bipyridin]-1′(2′H)-yl)methyl)-1-(oxetan-2-ylmethyl)-1H-benzo[d]imidazole-6-carboxylic add], the figure is no more than 15 nM; as for `O=C(O)c1ccc2nc(CN3CCN(c4ccc5ccn(Cc6ccc(Cl)cc6F)c5n4)CC3)n(C[C@@H]3CCO3)c2c1` [Compound 13, (S)-2-((4-(1-(4-chloro-2-fluorobenzyl)-1 h-pyrrolo[2,3-b]pyridin-6-yl)piperazin-1-yl)methyl)-1-(oxetan-2-ylmethyl)-1 h-benzo[d]imidazole-6-carboxylic add], no more than 150 nM; as for `O=C(O)c1ccc2nc(CN3CC=C(c4cc5cc[nH]c5c(OCc5ccc(Cl)cc5F)n4)CC3)n(C[C@@H]3CCO3)c2c1` [Compound 48, (S)-2-((4-(7-((4-chloro-2-fluorobenzyl)oxy)-1 h-pyrrolo[2,3-c]pyridin-5-yl)-3,6-dihydropyridin-1(2H)-yl)methyl)-1-(oxetan-2-ylmethyl)-1 h-benzo[d]imidazole-6-carboxylic acid], no more than 150 nM.

In the case of `O=C(O)c1ccc2nc(CN3CC=C(c4ccc(F)c(NCc5ccc(Cl)cc5F)c4)CC3)n(C[C@@H]3CCO3)c2c1` [Compound 129, (S)-2-((4-(3-((4-chloro-2-fluorobenzyl)amino)-4-fluorophenyl)-3,6-dihydropyridin-1(2H)-yl)methyl)-1-(oxetan-2-ylmethyl)-1H-benzo[d]imidazole-6-carboxylic acid], the EC50 is no more than 15 nM.

Consider `O=C(O)c1ccc2nc(CN3CC=C(c4nccc(OCc5ccc(C#CC6CC6)cc5F)n4)CC3)n(C[C@@H]3CCO3)c2c1` [Compound 200, (S)-2-((4-(4-((4-(cyclopropylethynyl)-2-fluorobenzyl)oxy)pyrimidin-2-yl)-3,6-dihydropyridin-1(2H)-yl)methyl)-1-(oxetan-2-ylmethyl)-1H-benzo[d]imidazole-6-carboxylic acid], for which the EC50 was no more than 15 nM. For the compound `O=C(O)c1ccc2nc(CN3CC=C(c4cc(F)cc(OCc5ccc(Cl)cc5F)c4)CC3)n(C[C@@H]3CCO3)c2c1` [Compound 42, (S)-2-((4-(3-((4-chloro-2-fluorobenzyl)oxy)-5-fluorophenyl)-3,6-dihydropyridin-1(2H)-yl)methyl)-1-(oxetan-2-ylmethyl)-1 h-benzo[d]imidazole-6-carboxylic acid], the EC50 is no more than 15 nM. In the case of `N#Cc1ccc(COc2cccc(C3CCN(Cc4nc5ccc(C(=O)O)cc5n4C[C@@H]4CCO4)CC3)c2)c(F)c1` [Compound 191, (S)-2-((4-(3-((4-cyano-2-fluorobenzyl)oxy)phenyl)piperidin-1-yl)methyl)-1-(oxetan-2-ylmethyl)-1H-benzo[d]imidazole-6-carboxylic acid], the EC50 is no more than 150 nM. Then `O=C(O)c1ccc2nc(CN3CC=C(c4cccc(OC5CCCc6cc(Cl)ccc65)n4)CC3)n(C[C@@H]3CCO3)c2c1` (stereo partly drawn) [Compound 60, 2-((6-((6-chloro-1,2,3,4-tetrahydronaphthalen-1-yl)oxy)-3′,6′-dihydro-[2,4′-bipyridin]-1′(2′H)-yl)methyl)-1-(((S)-oxetan-2-yl)methyl)-1H-benzo[d]imidazole-6-carboxylic acid], with no more than 1000 nM; and `O=C(O)c1ccc2nc(CN3CC=C(c4ccnc(OCc5ccc(F)cc5F)n4)CC3)n(C[C@@H]3CCO3)c2c1` [Compound 215, (S)-2-((4-(2-((2H-difluorobenzyl)oxy)pyrimidin-4-yl)-3,6-dihydropyridin-1(2H)-yl)methyl)-1-(oxetan-2-ylmethyl)-1H-benzo[d]imidazole-6-carboxylic acid], with no more than 150 nM; and `O=C(O)c1ccc2nc(CN3CC4CCC3CN4c3cccc(OCc4ccc(Cl)cc4F)n3)n(C[C@@H]3CCO3)c2c1` (stereo partly drawn) [Compound 17, 2-((5-(6-((4-chloro-2-fluorobenzyl)oxy)pyridin-2-yl)-2,5-diazabicyclo[2.2.2]octan-2-yl)methyl)-1-(((S)-oxetan-2-yl)methyl)-1 h-benzo[d]imidazole-6-carboxylic acid], with greater than 1000 nM.
